Columns and labels:
L. major amastigotes = L. major amastigotes within J774 cells, parasite survival; type: cell-based
Protocol: To distinguish between leishmaniostatic and leishmanicidal effects, a time course survival curve was generated for J774 cultures infected with L. major.
Amastigotes were generated by infecting J774 murine macrophages. Infections were carried after seeding cells in 8-well Labtek chambers (Thermo Physic Scientific, Rochester N.Y.) at a concentration of 5×10^4 cells/well. To avoid multiplication, cells were incubated with mitomycin C at a concentration of 0.8 μg/ml for 16 h. Infective-stage promastigotes (metacyclics) of L. major were isolated from stationary cultures (4-5 day-old) by Ficoll enrichment, added to macrophage cultures (5 promastigotes: 1 cell) and kept overnight at 37° C. in the presence of 5% CO2 and DMEM with 10% FCS. Sixteen hours later, non-internalized promastigotes were then washed and replaced by culture medium containing the drug. Forty-eight hours later, wells were detached from the slides, stained with Diff-Quick (Dade Behring, Newark, Del.) and counted under light microscope. Parasite burden was determined by observation under light microscopy (1000×) as the number of amastigotes per one hundred J774 cells. Percentage of survival of amastigotes and MIC50 were calculated as above.

J774 cells = assay: Cytokine (ELISA) and nitric oxide (Griess test) production in J774 cells; type: cell-based, murine; details: amphotericin B at the doses tested (0.1-1 μg/ml)
Protocol: The ability of J774 cells to produce cytokines in response to infection and/or treatment was also determined. Cells were infected, treated or activated as described above. The amount of the proinflammatory cytokines IL-12 and TNF-α (implicated in Thl response and parasite killing), as well as the repressive cytokine IL-10, was determined by ELISA in the culture supernatants. The level of nitric oxide was also determined in the same supernatants. PZA treatment alone increased cytokine production, especially IL-12 and TNF-α and NO release. […] Finally, to test the specificity of the immune activation by PZA, we determined the effect that amphotericin B treatment had on activation and cytokine expression by J774 cells.
J774 cells or bone marrow-derived cells were seeded onto 24-well plates at a concentration of 5×10^5 cells/ml. Twenty-four hours later, PZA was added to the wells at different concentrations in the absence or presence of L. major (1:5 parasite ratio). In some experiments, J774 cells were treated with amphotericin B (0.1, 0.5, or 1 μg/ml). Two control groups were also included in this experiment: a positive control of activation consisting in a group of uninfected cells treated with 100 ng/ml LPS and 10 IU IFN-γ as a positive control of activation, and a negative control of activation, consisting in uninfected, untreated cells. Cell cultures were maintained overnight, and then cultured for an additional 6 h with brefeldin A (10 μg/ml), harvested by scraping and fixed in 2% paraformaldehyde. Prior to staining, cells were incubated with an anti-Fc III/II receptor and 10% normal mouse serum (NMS) in PBS containing 0.1% BSA, 0.01% NaN3. Cells were permeabilized with saponin and stained for the surface markers CD80 (clone 16-10A1), CD86 (clone GL1), MHCI (clone 28-14-8), MHCII (clone M5/114.15.2) and for the cytokines IL-12p40/p70 (clone C17.8) and IL-10 (clone JESS-16E3). Incubations were carried out for 30 min on ice. All antibodies were purchased from BD Biosciences or eBioscience. For each sample, at least 50,000 cells were analyzed. The data were collected and analyzed using CELLQuest software and a FACScalibur flow cytometer (Becton Dickinson, San Jose, Calif.).

uninfected J774 cells = type: cell-based
Protocol: The potential cytotoxicity of PZA toward the mammalian cell line was determined by co-incubation of PZA with uninfected J774 cells for 48 h (10^4 cells/well) in 96-well culture plates. […] At 200 μg/ml, the compound started to show signs of toxicity, resulting in mortality of 25% of the cell monolayer. […] The control drug amphotericin B caused 5% mortality of the cell monolayer at the concentration tested (1 μg/ml).
J774 cell viability following incubation with PZA was also determined. Cells were seeded onto 8-well Labtek chambers as above and incubated with different concentrations of PZA (up to 1 mg/ml) for 48 h, stained with Diff-Quick and counted under light microscope. The percentage of viable cells was determined after quantifying the number of cells present per field (in 25 fields, ca. 500 cells). Percentage of survival and MIC50 were calculated as above.

L. major promastigotes = assay: L. major promastigote drug treatment, parasite survival after 48 h; type: cell-based
Protocol: The effect of PZA was first investigated with promastigotes of L. major. PZA was diluted in medium and added to cultures. After 48 h, parasite multiplication was determined by counting parasites in culture. […] Incubation of L. major with 1 μg/ml amphotericin B (as a positive control) caused 100% mortality of promastigotes and 90% of amastigotes.
Mid-log phase (day 3 of culture) L. major promastigotes were employed. Parasite concentration was adjusted to 10^6 promastigotes/ml and seeded into 96-well plates in a volume of 100 μl (final concentration, 10^5 promastigotes/well). PZA was tested in triplicate in a concentration gradient from 1,000-0.5 μg/ml and added to the wells containing the parasite in a volume of 100 μl. A negative control was included with three wells containing only parasites and medium. The positive control consisted of amphotericin B (1 μg/ml). This concentration was previously employed by us because this concentration is equivalent to drug concentrations achieved in human plasma. After 48 h of incubation at 26° C., 10 μL of each well was diluted in 90 μL of the vital colorant (trypan blue in PBS) and the parasites were quantified in a Neubauer chamber. Data was normalized as percentage of survival compared to untreated controls. The Lethal Dose 50 (LD50) was extrapolated from the graph as the concentration of the products that inhibited the parasitic growth at 50% of the values of the negative control.

Row | SMILES | MIC50 reduced relative to PZA (L. major amastigotes; L. major amastigotes within J774 cells) [fold] | MIC50 for PZA analogs (L. major amastigotes; L. major amastigotes within J774 cells (Table Ia)) [μM] | activation and cytokine expression of J774 cells (J774 cells) | mortality of the cell monolayer (uninfected J774 cells; amphotericin B 1 μg/ml) [%] | percentage of survival compared to untreated control (uninfected J774 cells; uninfected J774 cells, Amphotericin B 1 μg/ml, 48 h) [%] | mortality of promastigotes (L. major promastigotes; 1 μg/ml amphotericin B) [%] | percentage of survival compared to untreated control (L. major promastigotes; promastigote, Amphotericin B 1 μg/ml, 48 h) [%] | mortality of amastigotes (L. major amastigotes; 1 μg/ml amphotericin B) [%] | percentage of survival compared to untreated control (L. major amastigotes; amastigote in J774, Amphotericin B 1 μg/ml, 48 h) [%] | elimination of parasites from macrophage cultures (L. major amastigotes; amphotericin B 0.1 μg/ml, infected cells)
1 | NC(=O)c1cnc(F)cn1 [5-Fl PZA] | 100 | 0.08 | – | – | – | – | – | – | – | –
2 | C[C@@H]1[C@H](O)[C@@H](C)/C=C/C=C/C=C/C=C/C=C/C=C/C=C/[C@H](O[C@@H]2O[C@H](C)[C@@H](O)[C@H](N)[C@@H]2O)C[C@@H]2O[C@](O)(C[C@@H](O)C[C@@H](O)[C@H](O)CC[C@@H](O)C[C@@H](O)CC(=O)O[C@H]1C)C[C@H](O)[C@H]2C(=O)O [Amphotericin B, amphotericin B] | – | – | did not result in activation | 5 | 95 ± 16 | 100 | 0 | 90 | 10 ± 5 | total elimination of parasites

Reference: patent US20120157396A1, “PYRAZINAMIDE FOR IMMUNOSTIMULATION AND THE TREATMENT OF LEISHMANIASES” (priority 2009, published 2012)
